# Laboratory results as given in patent US20170112732A1, “ENCAPSULATION OF ORAL CARE ACTIVE AGENTS” (KONINKLIJKE PHILIPS N.V., priority 2014, published 2017).
# Where a name gives a salt, the structure may show the parent alone.
# Test: Determination of ethyl formate solubility in paraffin oil (GC-FID)
# Assay type: physicochemical
# Procedure: 12 mL of ethyl formate (0.917 g/cm^3) were added to 18 mL of liquid paraffin (density, 0.830 g/cm^3) in a glass bottle. The bottle was then closed with butyl rubber stopper and aluminium crimp seal and seal with a hand crimper before vigorously mixing the system with a vortex for 2 min. The bottle containing the mixture was immersed in a temperature-controlled jacketed beaker for 24 h and to allow the formation of two distinct layers, an upper layer consisting of ethyl formate and Liquid paraffin and the lower layer with only ethyl formate. Samples were withdrawn from the upper layer with a needle, filtered and analysed using a gas chromatography with flame ionisation detector (GC-FID) under the conditions presented in table 2. The quantity of ethyl formate in the mixture was inferred from the calibration curve obtained with different concentration of ethyl formate diluted with anhydrous ethanol.
compound,measurement,setting,value
"CCOC=O [Ethyl formate, ethyl formate]",Ethyl formate solubility in liquid paraffin,5 ° C.,13.4 % v/v
same,Ethyl formate solubility in liquid paraffin,10 ° C.,16.3 % v/v
same,Ethyl formate solubility in liquid paraffin,20 ° C.,26.8 % v/v
same,Ethyl formate solubility in liquid paraffin,30 ° C.,38.9 % v/v
